Read-outs that look alike come from different tables or passages of the source.
Assays:
in vitro = conditions: human
HCV = experiment: Inhibition of HCV replication in chronically HCV-infected human PBMC (RT-PCR); conditions: for IC50: read-out: Anti-HCV activity in PBMC IC50; for IC90: read-out: Anti-HCV activity in PBMC IC90
Description: In addition, the inhibition of HCV replication by epirubicin hydrochloride (BNE00), N3′-acetylepirubicin (BNE01), and N3′,O4′,O14-triacetylepirubicin (BNE02) were analyzed in chronically HCV-infected human peripheral blood monocyte cells (PBMC) cultures which was performed as follows. PBMC were isolated from HCV-infected patients blood by Ficoll Pague centrifugation placed on Petri dishes and cultured in 10% FCS, RPMI medium containing PHA (3 μg/ml) according to Laskus et al. (J Infect Dis. 2000) and enriched with known concentrations of BNE00, BNE01, BNE02 in standard conditions (37° C., 5% CO2). On day 5 and 14 of the culture the cells were collected and after extraction, HCV RNA was […] estimated by real-time Reverse Transcriptase Polymerase Chain Reaction using SYBR Green system (FIG. 3). Semiquantitative estimation of HCV RNA was also performed by Reverse Transcriptase Polymerase Chain Reaction, and visualized after electrophoresis through a 1% agarose gel, using ethidium bromide staining (FIG. 4).

in vivo = conditions: both, BALB/C, mouse, ip
Description: (§1) The in vivo determination of acute toxicity of drugs was performed in mice according to “OECD Guidelines for Testing of Chemicals” (Guideline No 401). The study was performed in BALB/C mice and the test substance was administrated intraperitoneally in dose of 1; 5 and 10 mg/kg b.w. Ten males and 10 females were used for each dose. A control group receiving only solvent was run concurrently.

[1] = Cytotoxic activity in Huh7 cells replicating the HCV replicon; conditions: human
HCV subgenomic replicon = experiment: Anti-HCV activity in HCV subgenomic replicon system (Huh7 cells, firefly luciferase); conditions: for Therapeutic Index in HCV replicon system CC50/IC50: Huh7 HCV replicon system
Description: The antiviral (anti-HCV) activity of epirubicin and its derivatives was tested in vitro in cell culture model using the HCV subgenomic replicon stably transfected into Huh7 cells line (clone BM4.5) (Gao et al., J. Virol. 2001) and/or in Huh7 cells replicating selectable subgenomic HCV replicon carrying firefly luciferase gene (Vrolijk et al. J. Virol. Method. 2003).
The BM4.5 Huh7 cells were grown in cell culture medium in presence of varying concentrations of epirubicin hydrochloride (BNE00) or epirubicin derivatives. The media and drug were changed everyday for 5 days. After 5 days of treatment cells were lysed and total RNA extracted as described (Gao et al., J. Virol. 2001). The isolated RNA was then assayed for presence of HCV replication by Northern Blot analysis, using a HCV probe targeting the NS5B region of HCV. […] The cell lines were treated everyday with different epirubicin hydrochloride (BNE00) or epirubicin derivatives concentrations for 5 days and at the end of treatment, the RNA from the treated cells were isolated. The total RNA was then probed with a HCV specific probe using Northern blot analysis to detect the HCV RNA. The resulting blot was then exposed to phosphorimager densitometry and the viral replication quantified.
For Huh7 cells replicating selectable subgenomic HCV replicon carrying firefly luciferase gene cells were treated with epirubicin hydrochloride (BNE00) or epirubicin derivatives as described above for BM4,5 cells. Following the treatment, cells were lysed and firefly luciferase activity was measured using Luminoskan device (Thermolabsystem) as described (Vrolijk et al. J. Virol. Methods. 2003).

Huh7 cells = experiment: Cytotoxic activity in Huh7 cells replicating the HCV replicon; conditions: read-out: Cytotoxic activity in Huh7 Cells, CC50; Huh7 cells replicating subgenomic HCV replicon carrying firefly luciferase gene
BALB/C mice = experiment: In vivo acute toxicity in mice (OECD Guideline No 401)
Description: as §1

[2] = Hepatitis C virus, PBMC, in Homo sapiens
[3] = chronically HCV-infected human PBMC
[4] = read-out: Anti-HCV activity in HCV replicon system IC50, Huh7 cells, subgenomic HCV replicon carrying firefly luciferase gene

Structure (SMILES)	CC50 (in vitro) [nM]	CC90 (in vitro) [nM]	IC50 (HCV; [2]) [nM]	IC90 (HCV; [2]) [nM]	Therapeutic Index in PBMC TI50 CC50/IC50 (HCV; [3])	LD50 (in vivo) [mg/kg]	CC50 [1] [nM]	IC50 (HCV subgenomic replicon; Hepatitis C virus, Huh-7, read-out: Anti-HCV activity in HCV replicon system IC50) [nM]	IC50 (HCV subgenomic replicon; Hepatitis C virus, Huh-7, read-out: anti-HCV IC50) [nM]	Therapeutic Index in HCV replicon system CC50/IC50 (HCV subgenomic replicon)	CC50 (PBMC) [nM]	CC90 (PBMC) [nM]	IC50 (HCV; [3]) [nM]	IC90 (HCV; [3]) [nM]	CC50 (Huh7 cells) [nM]	LD50 (in vivo acute toxicity) (BALB/C mice; BALB/C mice, intraperitoneal) [mg/kg b.w.]	fold lower acute toxicity compared with epirubicin hydrochloride (BNE00) (BALB/C mice; LD50 ratio, mice) [fold]	IC50 (HCV subgenomic replicon; [4]) [nM]
COc1cccc2c1C(=O)c1c(O)c3c(c(O)c1C2=O)C[C@@](O)(C(=O)CO)C[C@@H]3O[C@H]1C[C@H](N)[C@@H](O)[C@H](C)O1 [BNE00, 7-O-(3′-amino-2′,3′,6′-trideoxy-α,β-L-arabinohexopyranosyl)-adriamycinone, reference compound]	1800	2400	320	460	5.62	26.2	3	2	2 to 4	1.5	–	–	–	–	–	–	–	–
COc1cccc2c1C(=O)c1c(O)c3c(c(O)c1C2=O)C[C@@](O)(C(=O)CO)C[C@@H]3O[C@H]1C[C@@H](NC(C)=O)[C@H](O)[C@H](C)O1 [BNE01, N3′-acetyl-4′-epidoxorubicin]	–	–	–	–	91.7	–	–	–	–	–	33000	91000	360	470	–	–	–	–
COc1cccc2c1C(=O)c1c(O)c3c(c(O)c1C2=O)CC(O)(C(=O)COC(C)=O)CC3OC1CC(NC(C)=O)C(OC(C)=O)C(C)O1 (stereo not shown) [BNE02, N3′, O4′, O14-triacetyl-4′-epidoxorubicin]	–	–	–	–	>490.0	–	–	–	–	10	49000	120000	< 100	500	5000	1355.08	52	500
COc1cccc2c1C(=O)c1c(O)c3c(c(O)c1C2=O)CC(O)(C(=O)CO)CC3OC1CC(N(C)C)C(O)C(C)O1 (stereo not shown) [BNE06, 3′-N,N-Dimethyl-4′-epidoxorubicin]	–	–	–	–	–	–	–	–	–	3.0	–	–	–	–	60	–	–	18
